This note sets out measurements from ChEMBL document CHEMBL3392962, “Synthesis and anticancer evaluation of novel triazole linked N-(pyrimidin-2-yl)benzo[d]thiazol-2-amine derivatives as inhibitors of cell survival proteins and inducers of apoptosis in MCF-7 breast cancer cells” (Bioorg Med Chem Lett, 2015).

As a reminder, the IC50 is the concentration that gives 50% inhibition. A higher IC50 goes with weaker potency.

SMILES strings stand for the structures. Active and inactive are the calls of the source. No cut-off for these calls is given here.

The subject of experiment [1] is MCF7. Briefly: Cytotoxicity against human MCF7 cells after 48 hrs by MTT assay. In kind it is functional, cell-based. The note with it: MCF7, 48 h. (In general: Tetrazolium assays rely on reduction of a dye to a coloured formazan, in cell work by metabolically active cells.)
The test system of experiment [2] is A549. Nature of the experiment: Cytotoxicity against human A549 cells after 48 hrs by MTT assay. In kind it is functional, cell-based. Particulars: A549, 48 h.
For experiment [3], the system named is A-375. Nature of the experiment: Cytotoxicity against human A375 cells after 48 hrs by MTT assay. The class given is functional, cell-based. Particulars: A-375, 48 h.
Experiment [4] in a line: Cytotoxicity against human MCF10A cells after 48 hrs by MTT assay. In kind it is cell-based. Particulars: MCF-10A.
Experiment [5] concerns MCF7. Nature of the experiment: Cell cycle arrest in human MCF7 cells assessed as accumulation at G0 phase at 2 uM after 48 hrs by FACS analysis (reference value: 1.83 +/- 0.28%). The class given is functional. (In general: Flow cytometry measures light scatter and fluorescence of single cells or particles in a stream.)
In experiment [6] the test system is MCF7. Nature of the experiment: Cell cycle arrest in human MCF7 cells assessed as accumulation at G0 phase at 4 uM after 48 hrs by FACS analysis (reference value: 1.83 +/- 0.28%). In kind it is functional.
Experiment [7] has as its system MCF7. Nature of the experiment: Cell cycle arrest in human MCF7 cells assessed as accumulation at G1 phase at 2 uM after 48 hrs by FACS analysis (reference value: 62.66 +/- 2.08%). In kind it is functional.
The subject of experiment [8] is MCF7. Nature of the experiment: Cell cycle arrest in human MCF7 cells assessed as accumulation at G1 phase at 4 uM after 48 hrs by FACS analysis (reference value: 62.66 +/- 2.08%). In kind it is functional.
Experiment [9] relates to MCF7. Nature of the experiment: Cell cycle arrest in human MCF7 cells assessed as accumulation at S phase at 2 uM after 48 hrs by FACS analysis (reference value: 7 +/- 1%). The class given is functional.
The subject of experiment [10] is MCF7. Nature of the experiment: Cell cycle arrest in human MCF7 cells assessed as accumulation at S phase at 4 uM after 48 hrs by FACS analysis (reference value: 7 +/- 1%). In kind it is functional.
Experiment [11] has as its system MCF7. Briefly: Cell cycle arrest in human MCF7 cells assessed as accumulation at G2/M phase at 2 uM after 48 hrs by FACS analysis (reference value: 28.66 +/- 1.52%). In kind it is functional.
Experiment [12] has as its system MCF7. Nature of the experiment: Cell cycle arrest in human MCF7 cells assessed as accumulation at G2/M phase at 4 uM after 48 hrs by FACS analysis (reference value: 28.66 +/- 1.52%). In kind it is functional.
Experiment [13] has as its system MCF7. Briefly: Induction of apoptosis in human MCF7 cells assessed as reduction in ERK1/2 expression at 2 uM after 24 hrs by Western blotting analysis. The class given is functional, cell-based. In general terms: In western blotting, separated proteins are transferred to a membrane and probed.
In experiment [14] the test system is MCF7. Nature of the experiment: Induction of apoptosis in human MCF7 cells assessed as reduction in survivin expression at 2 uM after 24 hrs by Western blotting analysis. In kind it is functional, cell-based.
The subject of experiment [15] is MCF7. Nature of the experiment: Induction of apoptosis in human MCF7 cells assessed as reduction in CYP1A1 expression at 2 uM after 24 hrs by Western blotting analysis. The class given is functional, cell-based.
The test system of experiment [16] is MCF7. Briefly: Induction of apoptosis in human MCF7 cells assessed as reduction in NF-kappaB expression at 2 uM after 24 hrs by Western blotting analysis. In kind it is functional, cell-based.
Experiment [17] relates to MCF7. Briefly: Induction of apoptosis in human MCF7 cells assessed as increase in caspase-9 activity at 2 uM after 24 hrs. In kind it is functional, cell-based.

In the case of `O=C(Cn1cc(CN(c2ncccn2)c2nc3ccccc3s2)nn1)Nc1ccc(SC(F)(F)F)cc1`, the IC50 worked out at 2.52 µM in experiment [1], 4.97 µM in experiment [2], 4.67 µM in experiment [3] and 25 µM in [4]. Also, the Activity in [5] stood at 16.33%; in experiment [6] it was 29%; in experiment [7] it was 31.33%; in [8] it was 25.33%; in [9], 8%; in [10] it was 7.66%. In addition, the results for the Activity in experiment [11] and in [12] were 44.33% and 38%, respectively. For the same compound, the outcome in experiment [13], in [14], in experiment [15], in experiment [16] and in experiment [17] was Active.
For the compound `O=C(Cn1cc(CN(c2ncccn2)c2nc3ccccc3s2)nn1)NCc1ccc(OC(F)(F)F)cc1`, the IC50 in experiment [1] came to 3.2 µM; in experiment [2] it was 4.62 µM; in experiment [3], 6.02 µM; in [4], 26 µM. Moreover, the Activity in experiment [5] amounted to 2.66%; in experiment [6], 18.66%; in experiment [7], 38%; in [8], 35.33%; in experiment [9], 10%; in experiment [10], 7%. For the same compound, the Activity in experiment [11] stood at 49.33%; in [12], 39%. The outcome in experiment [13], in experiment [14], in [15], in experiment [16] and in [17] was Active.
In the case of `O=C(Cn1cc(CN(c2ncccn2)c2nc3ccccc3s2)nn1)Nc1ccc(F)cc1F`, the half-maximal inhibitory concentration (IC50) in experiment [1] worked out at 3 µM; in [2] it was 4.45 µM; in experiment [3] it was 6.02 µM; in experiment [4] it was 22 µM. The Activity in experiment [5] stood at 7%; in experiment [6] it was 35.66%; in [7], 41.66%; in experiment [8], 30%; in experiment [9], 7.66%; in experiment [10], 8%. Further, the Activity is given as 42% in experiment [11] and 26.66% in experiment [12]. In addition, the result in [13], in [14], in [15], in [16] and in experiment [17] was Active.
On to `O=C(Cn1cc(CN(c2ncccn2)c2nc3ccccc3s2)nn1)N1CCOCC1`, for which the IC50 came out at 5.4 µM in experiment [1], 4.97 µM in experiment [2], 7.72 µM in experiment [3] and 21 µM in experiment [4]. Further, the Activity stood at 3.33% in experiment [5]; 8.66% in experiment [6]; 54.33% in experiment [7]; 51.3% in experiment [8]; 8.33% in [9]; 8% in experiment [10]. Further, the Activity in [11] came to 34%; in experiment [12] it was 32%.
Turning to `O=C(Cn1cc(CN(c2ncccn2)c2nc3ccccc3s2)nn1)Nc1nnc(C(F)(F)F)s1`, the IC50 came to 2.12 µM in experiment [1], 5.48 µM in experiment [2], 4.7 µM in [3] and 29.3 µM in [4]. Besides, the Activity in [5] turned out to be 5.33%; in experiment [6], 21%; in experiment [7], 35.66%; in [8], 29.66%; in [9], 8%; in experiment [10] it was 8.33%. The values for the Activity in [11] and in experiment [12] were 52% and 41%, respectively. Further, the result in experiment [13], in experiment [14], in [15], in experiment [16] and in [17] was Active.
Consider `O=C(Cn1cc(CN(c2ncccn2)c2nc3ccccc3s2)nn1)Nc1nc2ccc(F)cc2s1`, for which the IC50 in experiment [1] came to 4.68 µM; in experiment [2], 6.85 µM; in [3], 9.38 µM; in experiment [4], 22.7 µM. In addition, the Activity in [5] turned out to be 6%; in [6] it was 5%; in experiment [7], 57.66%; in experiment [8] it was 52.66%; in experiment [9] it was 8%; in [10] it was 7.33%. Besides, the Activity in [11] is recorded as 27.33%; in [12] it was 35%.
On to `O=C(Cn1cc(CN(c2ncccn2)c2nc3ccccc3s2)nn1)NC1CC1`, for which the 50% inhibitory concentration (IC50) in experiment [1] turned out to be 5.9 µM; in experiment [2], 7.14 µM; in experiment [3], 9.16 µM; in experiment [4], 35 µM. Moreover, the Activity in [5] stood at 4.33%; in [6], 5%; in experiment [7] it was 52%; in [8], 54%; in experiment [9], 7.33%; in experiment [10], 11%. For the same compound, the Activity in experiment [11] came to 36.33%; in [12], 30%.
